# Data reported in ChEMBL document CHEMBL1932984, “Novel bis(indolyl)hydrazide-hydrazones as potent cytotoxic agents” (Bioorg Med Chem Lett, 2012).
# Tested on: LNCaP
# Test: Cytotoxicity against human LNCAP cells
# Format: functional, cell-based
row,Compound,IC50
1,O=C(N/N=C\c1cn(Cc2ccc(Cl)cc2)c2ccccc12)c1c[nH]c2ccccc12,> 100 µM
2,O=C(N/N=C\c1cn(Cc2ccc(Cl)cc2)c2ccc(Br)cc12)c1c[nH]c2ccccc12,3.7 µM
3,COc1ccc2c(c1)c(/C=N\NC(=O)c1c[nH]c3ccccc13)cn2Cc1ccc(Cl)cc1,> 100 µM
4,O=C(N/N=C\c1cn(Cc2ccc(Cl)cc2)c2cc(F)ccc12)c1c[nH]c2ccccc12,55.2 µM
5,COc1ccc2c(c1)c(/C=N\NC(=O)c1c[nH]c3ccc(Br)cc13)cn2Cc1ccc(Cl)cc1,> 100 µM
6,O=C(N/N=C\c1cn(Cc2ccc(Cl)cc2)c2cc(F)ccc12)c1c[nH]c2ccc(Br)cc12,24.8 µM
7,COc1ccc(Cn2cc(/C=N\NC(=O)c3c[nH]c4ccccc34)c3ccccc32)cc1,31.9 µM
8,COc1ccc(Cn2cc(/C=N\NC(=O)c3c[nH]c4ccccc34)c3cc(OC)ccc32)cc1,> 100 µM
9,COc1ccc(Cn2cc(/C=N\NC(=O)c3c[nH]c4ccccc34)c3ccc(F)cc32)cc1,> 100 µM
10,COc1ccc(Cn2cc(/C=N\NC(=O)c3c[nH]c4ccc(Br)cc34)c3ccc(F)cc32)cc1,> 100 µM
11,COc1ccc(Cn2cc(/C=N\NC(=O)c3c[nH]c4ccc(Br)cc34)c3cc(OC)ccc32)cc1,> 100 µM
12,COc1ccc(Cn2cc(/C=N\NC(=O)c3cn(C)c4ccccc34)c3ccc(F)cc32)cc1,9.6 µM
13,Cn1cc(C(=O)N/N=C\c2cn(Cc3ccc(Cl)cc3)c3cc(F)ccc23)c2ccccc21,> 100 µM
14,COc1ccc2c(c1)c(/C=N\NC(=O)c1cn(C)c3ccccc13)cn2Cc1ccc(Cl)cc1,> 100 µM
15,COc1cccc2c1C(=O)c1c(O)c3c(c(O)c1C2=O)C[C@@](O)(C(=O)CO)C[C@@H]3O[C@H]1C[C@H](N)[C@H](O)[C@H](C)O1 [DOXORUBICIN],5.23 µM

# Tested on: MCF7
# Test: Cytotoxicity against human MCF7 cells
# Format: functional, cell-based
row,Compound,IC50
1,O=C(N/N=C\c1cn(Cc2ccc(Cl)cc2)c2ccccc12)c1c[nH]c2ccccc12,96.7 µM
2,O=C(N/N=C\c1cn(Cc2ccc(Cl)cc2)c2ccc(Br)cc12)c1c[nH]c2ccccc12,3.2 µM
3,COc1ccc2c(c1)c(/C=N\NC(=O)c1c[nH]c3ccccc13)cn2Cc1ccc(Cl)cc1,8.7 µM
4,O=C(N/N=C\c1cn(Cc2ccc(Cl)cc2)c2cc(F)ccc12)c1c[nH]c2ccccc12,6 µM
5,COc1ccc2c(c1)c(/C=N\NC(=O)c1c[nH]c3ccc(Br)cc13)cn2Cc1ccc(Cl)cc1,29.1 µM
6,O=C(N/N=C\c1cn(Cc2ccc(Cl)cc2)c2cc(F)ccc12)c1c[nH]c2ccc(Br)cc12,8.3 µM
7,COc1ccc(Cn2cc(/C=N\NC(=O)c3c[nH]c4ccccc34)c3ccccc32)cc1,12.4 µM
8,COc1ccc(Cn2cc(/C=N\NC(=O)c3c[nH]c4ccccc34)c3cc(OC)ccc32)cc1,15 µM
9,COc1ccc(Cn2cc(/C=N\NC(=O)c3c[nH]c4ccccc34)c3ccc(F)cc32)cc1,13.1 µM
10,COc1ccc(Cn2cc(/C=N\NC(=O)c3c[nH]c4ccc(Br)cc34)c3ccc(F)cc32)cc1,31.7 µM
11,COc1ccc(Cn2cc(/C=N\NC(=O)c3c[nH]c4ccc(Br)cc34)c3cc(OC)ccc32)cc1,3.1 µM
12,COc1ccc(Cn2cc(/C=N\NC(=O)c3cn(C)c4ccccc34)c3ccc(F)cc32)cc1,22.6 µM
13,Cn1cc(C(=O)N/N=C\c2cn(Cc3ccc(Cl)cc3)c3cc(F)ccc23)c2ccccc21,90.6 µM
14,COc1ccc2c(c1)c(/C=N\NC(=O)c1cn(C)c3ccccc13)cn2Cc1ccc(Cl)cc1,99.1 µM
15,COc1cccc2c1C(=O)c1c(O)c3c(c(O)c1C2=O)C[C@@](O)(C(=O)CO)C[C@@H]3O[C@H]1C[C@H](N)[C@H](O)[C@H](C)O1 [DOXORUBICIN],11.7 µM

# Tested on: DU-145
# Test: Cytotoxicity against human DU145 cells
# Format: functional, cell-based
row,Compound,IC50
1,O=C(N/N=C\c1cn(Cc2ccc(Cl)cc2)c2ccccc12)c1c[nH]c2ccccc12,52.1 µM
2,O=C(N/N=C\c1cn(Cc2ccc(Cl)cc2)c2ccc(Br)cc12)c1c[nH]c2ccccc12,3.6 µM
3,COc1ccc2c(c1)c(/C=N\NC(=O)c1c[nH]c3ccccc13)cn2Cc1ccc(Cl)cc1,50 µM
4,O=C(N/N=C\c1cn(Cc2ccc(Cl)cc2)c2cc(F)ccc12)c1c[nH]c2ccccc12,18.6 µM
5,COc1ccc2c(c1)c(/C=N\NC(=O)c1c[nH]c3ccc(Br)cc13)cn2Cc1ccc(Cl)cc1,57 µM
6,O=C(N/N=C\c1cn(Cc2ccc(Cl)cc2)c2cc(F)ccc12)c1c[nH]c2ccc(Br)cc12,12.5 µM
7,COc1ccc(Cn2cc(/C=N\NC(=O)c3c[nH]c4ccccc34)c3ccccc32)cc1,43.9 µM
8,COc1ccc(Cn2cc(/C=N\NC(=O)c3c[nH]c4ccccc34)c3cc(OC)ccc32)cc1,19.1 µM
9,COc1ccc(Cn2cc(/C=N\NC(=O)c3c[nH]c4ccccc34)c3ccc(F)cc32)cc1,16.2 µM
10,COc1ccc(Cn2cc(/C=N\NC(=O)c3c[nH]c4ccc(Br)cc34)c3ccc(F)cc32)cc1,67.5 µM
11,COc1ccc(Cn2cc(/C=N\NC(=O)c3c[nH]c4ccc(Br)cc34)c3cc(OC)ccc32)cc1,84.4 µM
12,COc1ccc(Cn2cc(/C=N\NC(=O)c3cn(C)c4ccccc34)c3ccc(F)cc32)cc1,15.2 µM
13,Cn1cc(C(=O)N/N=C\c2cn(Cc3ccc(Cl)cc3)c3cc(F)ccc23)c2ccccc21,84.2 µM
14,COc1ccc2c(c1)c(/C=N\NC(=O)c1cn(C)c3ccccc13)cn2Cc1ccc(Cl)cc1,93 µM
15,COc1cccc2c1C(=O)c1c(O)c3c(c(O)c1C2=O)C[C@@](O)(C(=O)CO)C[C@@H]3O[C@H]1C[C@H](N)[C@H](O)[C@H](C)O1 [DOXORUBICIN],15.7 µM

# Tested on: MDA-MB-231
# Test: Cytotoxicity against human MDA-MB-231 cells
# Format: functional, cell-based
row,Compound,IC50
1,O=C(N/N=C\c1cn(Cc2ccc(Cl)cc2)c2ccccc12)c1c[nH]c2ccccc12,66.4 µM
2,O=C(N/N=C\c1cn(Cc2ccc(Cl)cc2)c2ccc(Br)cc12)c1c[nH]c2ccccc12,1 µM
3,COc1ccc2c(c1)c(/C=N\NC(=O)c1c[nH]c3ccccc13)cn2Cc1ccc(Cl)cc1,82.7 µM
4,O=C(N/N=C\c1cn(Cc2ccc(Cl)cc2)c2cc(F)ccc12)c1c[nH]c2ccccc12,5.3 µM
5,COc1ccc2c(c1)c(/C=N\NC(=O)c1c[nH]c3ccc(Br)cc13)cn2Cc1ccc(Cl)cc1,5 µM
6,O=C(N/N=C\c1cn(Cc2ccc(Cl)cc2)c2cc(F)ccc12)c1c[nH]c2ccc(Br)cc12,5.1 µM
7,COc1ccc(Cn2cc(/C=N\NC(=O)c3c[nH]c4ccccc34)c3ccccc32)cc1,15.1 µM
8,COc1ccc(Cn2cc(/C=N\NC(=O)c3c[nH]c4ccccc34)c3cc(OC)ccc32)cc1,9.8 µM
9,COc1ccc(Cn2cc(/C=N\NC(=O)c3c[nH]c4ccccc34)c3ccc(F)cc32)cc1,71.2 µM
10,COc1ccc(Cn2cc(/C=N\NC(=O)c3c[nH]c4ccc(Br)cc34)c3ccc(F)cc32)cc1,99.8 µM
11,COc1ccc(Cn2cc(/C=N\NC(=O)c3c[nH]c4ccc(Br)cc34)c3cc(OC)ccc32)cc1,61.2 µM
12,COc1ccc(Cn2cc(/C=N\NC(=O)c3cn(C)c4ccccc34)c3ccc(F)cc32)cc1,17.7 µM
13,Cn1cc(C(=O)N/N=C\c2cn(Cc3ccc(Cl)cc3)c3cc(F)ccc23)c2ccccc21,> 100 µM
14,COc1ccc2c(c1)c(/C=N\NC(=O)c1cn(C)c3ccccc13)cn2Cc1ccc(Cl)cc1,> 100 µM
15,COc1cccc2c1C(=O)c1c(O)c3c(c(O)c1C2=O)C[C@@](O)(C(=O)CO)C[C@@H]3O[C@H]1C[C@H](N)[C@H](O)[C@H](C)O1 [DOXORUBICIN],3.07 µM

# Tested on: MIA PaCa-2
# Test: Cytotoxicity against human MIAPaCa2 cells
# Format: functional, cell-based
row,Compound,IC50
1,O=C(N/N=C\c1cn(Cc2ccc(Cl)cc2)c2ccccc12)c1c[nH]c2ccccc12,44.3 µM
2,O=C(N/N=C\c1cn(Cc2ccc(Cl)cc2)c2ccc(Br)cc12)c1c[nH]c2ccccc12,8.7 µM
3,COc1ccc2c(c1)c(/C=N\NC(=O)c1c[nH]c3ccccc13)cn2Cc1ccc(Cl)cc1,26.7 µM
4,O=C(N/N=C\c1cn(Cc2ccc(Cl)cc2)c2cc(F)ccc12)c1c[nH]c2ccccc12,18 µM
5,COc1ccc2c(c1)c(/C=N\NC(=O)c1c[nH]c3ccc(Br)cc13)cn2Cc1ccc(Cl)cc1,26.3 µM
6,O=C(N/N=C\c1cn(Cc2ccc(Cl)cc2)c2cc(F)ccc12)c1c[nH]c2ccc(Br)cc12,10.6 µM
7,COc1ccc(Cn2cc(/C=N\NC(=O)c3c[nH]c4ccccc34)c3ccccc32)cc1,41.6 µM
8,COc1ccc(Cn2cc(/C=N\NC(=O)c3c[nH]c4ccccc34)c3cc(OC)ccc32)cc1,30.5 µM
9,COc1ccc(Cn2cc(/C=N\NC(=O)c3c[nH]c4ccccc34)c3ccc(F)cc32)cc1,43.3 µM
10,COc1ccc(Cn2cc(/C=N\NC(=O)c3c[nH]c4ccc(Br)cc34)c3ccc(F)cc32)cc1,45.5 µM
11,COc1ccc(Cn2cc(/C=N\NC(=O)c3c[nH]c4ccc(Br)cc34)c3cc(OC)ccc32)cc1,44.5 µM
12,COc1ccc(Cn2cc(/C=N\NC(=O)c3cn(C)c4ccccc34)c3ccc(F)cc32)cc1,55.8 µM
13,Cn1cc(C(=O)N/N=C\c2cn(Cc3ccc(Cl)cc3)c3cc(F)ccc23)c2ccccc21,50.4 µM
14,COc1ccc2c(c1)c(/C=N\NC(=O)c1cn(C)c3ccccc13)cn2Cc1ccc(Cl)cc1,56.4 µM
15,COc1cccc2c1C(=O)c1c(O)c3c(c(O)c1C2=O)C[C@@](O)(C(=O)CO)C[C@@H]3O[C@H]1C[C@H](N)[C@H](O)[C@H](C)O1 [DOXORUBICIN],18.2 µM

# Tested on: PC-3
# Test: Cytotoxicity against human PC3 cells
# Format: functional, cell-based
row,Compound,IC50
1,O=C(N/N=C\c1cn(Cc2ccc(Cl)cc2)c2ccccc12)c1c[nH]c2ccccc12,16.2 µM
2,O=C(N/N=C\c1cn(Cc2ccc(Cl)cc2)c2ccc(Br)cc12)c1c[nH]c2ccccc12,12.4 µM
3,COc1ccc2c(c1)c(/C=N\NC(=O)c1c[nH]c3ccccc13)cn2Cc1ccc(Cl)cc1,30.3 µM
4,O=C(N/N=C\c1cn(Cc2ccc(Cl)cc2)c2cc(F)ccc12)c1c[nH]c2ccccc12,19.5 µM
5,COc1ccc2c(c1)c(/C=N\NC(=O)c1c[nH]c3ccc(Br)cc13)cn2Cc1ccc(Cl)cc1,15.9 µM
6,O=C(N/N=C\c1cn(Cc2ccc(Cl)cc2)c2cc(F)ccc12)c1c[nH]c2ccc(Br)cc12,12.4 µM
7,COc1ccc(Cn2cc(/C=N\NC(=O)c3c[nH]c4ccccc34)c3ccccc32)cc1,14.6 µM
8,COc1ccc(Cn2cc(/C=N\NC(=O)c3c[nH]c4ccccc34)c3cc(OC)ccc32)cc1,13.6 µM
9,COc1ccc(Cn2cc(/C=N\NC(=O)c3c[nH]c4ccccc34)c3ccc(F)cc32)cc1,18.4 µM
10,COc1ccc(Cn2cc(/C=N\NC(=O)c3c[nH]c4ccc(Br)cc34)c3ccc(F)cc32)cc1,21.8 µM
11,COc1ccc(Cn2cc(/C=N\NC(=O)c3c[nH]c4ccc(Br)cc34)c3cc(OC)ccc32)cc1,28 µM
12,COc1ccc(Cn2cc(/C=N\NC(=O)c3cn(C)c4ccccc34)c3ccc(F)cc32)cc1,12.8 µM
13,Cn1cc(C(=O)N/N=C\c2cn(Cc3ccc(Cl)cc3)c3cc(F)ccc23)c2ccccc21,22.1 µM
14,COc1ccc2c(c1)c(/C=N\NC(=O)c1cn(C)c3ccccc13)cn2Cc1ccc(Cl)cc1,21.2 µM
15,COc1cccc2c1C(=O)c1c(O)c3c(c(O)c1C2=O)C[C@@](O)(C(=O)CO)C[C@@H]3O[C@H]1C[C@H](N)[C@H](O)[C@H](C)O1 [DOXORUBICIN],62.3 µM
